Data taken from patent US10874667B2, “Pharmaceutical salt of antitumor heterocyclic imidazole compound” (SHANGHAI HUILUN LIFE SCIENCE & TECHNOLOGY CO., LTD., priority 2016, dated 2020).

Assay: Solubility test in water (HPLC)
Format: physicochemical
Conditions: stirred at constant temperature for 30 min
Protocol: The solubility of the salt of the compound of Formula (I) of the present invention was determined by the following method:
a) About 200 mg of the salt of the compound of Formula (I) was accurately weighed, dissolved in 200 ml of an aqueous solution, stirred at a constant temperature for 30 min, and allowed to stand. The supernatant was centrifuged, and then the supernatant of the centrifugate was taken and used as a test solution.
b) About 200 mg of the compound of Formula (I) was accurately weighed, dissolved in aqueous methanol, and quantitatively diluted into a solution containing 0.02 mg of free base per 1 ml.
The solution was used as a reference solution.
The table below compares the solubilities of the compound of Formula (I) and its various forms of salts.

Row | Structure (SMILES) | Solubility in water | solubility at 30 min (thermodynamic from solid)
1 | Cc1ccc(S(=O)(=O)O)cc1.O=C(c1cc(Cc2n[nH]c(=O)c3ccccc23)ccc1F)N1CCN(c2ccc3[nH]cnc3n2)CC1 [4-(3-(4-(1H-imidazo[4,5-b]pyridine-5-yl)piperazine-1-carbonyl)-4-fluorobenzyl)phthalazine-1(dihydro)-one p-toluenesulfonate] | 40 µg/mL | 
2 | O=C(c1cc(Cc2n[nH]c(=O)c3ccccc23)ccc1F)N1CCN(c2ccc3[nH]cnc3n2)CC1.O=S(=O)(O)CCO [4-(3-(4-(1H-imidazo[4,5-b]pyridine-5-yl)piperazine-1-carbonyl)-4-fluorobenzyl)phthalazine-1(dihydro)-one hydroxyethanesulfonate] | 310 µg/mL | 
3 | CS(=O)(=O)O.O=C(c1cc(Cc2n[nH]c(=O)c3ccccc23)ccc1F)N1CCN(c2ccc3[nH]cnc3n2)CC1 [4-(3-(4-(1H-imidazo[4,5-b]pyridine-5-yl)piperazine-1-carbonyl)-4-fluorobenzyl)phthalazine-1(dihydro)-onemethanesulfonate] | 300 µg/mL | 
4 | O=C(c1cc(Cc2n[nH]c(=O)c3ccccc23)ccc1F)N1CCN(c2ccc3[nH]cnc3n2)CC1.O=S(=O)(O)c1ccccc1 [4-(3-(4-(1H-imidazo[4,5-b]pyridine-5-yl)piperazine-1-carbonyl)-4-fluorobenzyl)phthalazine-1(dihydro)-one benzenesulfonate] | 230 µg/mL | 
5 | O=C(c1cc(Cc2n[nH]c(=O)c3ccccc23)ccc1F)N1CCN(c2ccc3[nH]cnc3n2)CC1 [Formula I, 4-(3-(4-(1H-imidazo[4,5-b]pyridine-5-yl)piperazine-1-carbonyl)-4-fluorobenzyl)phthalazine-1(dihydro)-one] |  | 1 µg/mL
6 | Cl.O=C(c1cc(Cc2n[nH]c(=O)c3ccccc23)ccc1F)N1CCN(c2ccc3[nH]cnc3n2)CC1 [4-(3-(4-(1H-imidazo[4,5-b]pyridine-5-yl)piperazine-1-carbonyl)-4-fluorobenzyl)phthalazine-1(dihydro)-one hydrochloride] | 340 µg/mL | 
